ChEMBL document CHEMBL1201862, “PubChem BioAssay data set” (2004)
Activity calls are given as the source filed them.

Tests used:
[1] = target: T1, Heat shock factor protein 1 (Mus musculus, UniProt P38532); test: decrease of HSF1-responsive luciferase luminescence – cell-based, NIH3T3, dose retest, confirmation (AID 2382); assay type: functional;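 further: NIH3T3 fibroblasts with HSF1-driven luciferase reporter stressed by proteasome inhibitor MG132; luminescence from HSF1-driven luciferase expression after 8 hours of MG132 stress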
T1 sequence (P38532 whole entry): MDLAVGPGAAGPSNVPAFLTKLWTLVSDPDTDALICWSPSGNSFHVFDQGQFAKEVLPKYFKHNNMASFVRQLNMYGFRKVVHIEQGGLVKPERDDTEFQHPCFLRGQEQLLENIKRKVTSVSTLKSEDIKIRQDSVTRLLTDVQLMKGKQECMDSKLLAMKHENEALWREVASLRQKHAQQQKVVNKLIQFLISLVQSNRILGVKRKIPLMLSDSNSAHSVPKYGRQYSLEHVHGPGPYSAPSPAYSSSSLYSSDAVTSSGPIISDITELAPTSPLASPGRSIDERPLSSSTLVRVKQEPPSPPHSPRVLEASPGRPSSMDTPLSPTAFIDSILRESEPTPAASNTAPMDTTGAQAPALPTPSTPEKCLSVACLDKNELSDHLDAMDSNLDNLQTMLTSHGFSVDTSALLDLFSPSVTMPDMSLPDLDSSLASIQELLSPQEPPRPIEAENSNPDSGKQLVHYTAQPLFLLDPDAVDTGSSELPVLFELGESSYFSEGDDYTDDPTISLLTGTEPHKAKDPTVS

[2] = target: Cytochrome P450 2C9 (Homo sapiens, UniProt P11712)
Chain of Cytochrome P450 2C9 (P11712 whole entry): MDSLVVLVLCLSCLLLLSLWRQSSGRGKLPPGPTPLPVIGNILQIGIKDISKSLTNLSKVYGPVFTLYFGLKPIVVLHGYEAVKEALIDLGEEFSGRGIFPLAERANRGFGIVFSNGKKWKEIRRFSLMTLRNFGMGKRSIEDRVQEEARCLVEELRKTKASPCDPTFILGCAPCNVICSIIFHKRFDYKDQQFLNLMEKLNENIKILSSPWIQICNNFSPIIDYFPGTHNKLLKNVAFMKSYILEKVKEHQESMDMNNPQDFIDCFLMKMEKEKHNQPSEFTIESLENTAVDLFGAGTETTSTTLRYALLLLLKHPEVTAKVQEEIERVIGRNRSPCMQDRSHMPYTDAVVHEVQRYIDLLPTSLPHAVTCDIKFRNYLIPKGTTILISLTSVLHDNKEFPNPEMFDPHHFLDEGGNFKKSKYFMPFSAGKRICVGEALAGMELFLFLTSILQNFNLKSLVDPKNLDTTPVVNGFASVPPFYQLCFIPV

[3] = target: Cytochrome P450 3A4 (Homo sapiens, UniProt P08684);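 further: CYP3A4 tested as one member of a cytochrome P450 panel screen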
Chain of Cytochrome P450 3A4 (P08684 whole entry): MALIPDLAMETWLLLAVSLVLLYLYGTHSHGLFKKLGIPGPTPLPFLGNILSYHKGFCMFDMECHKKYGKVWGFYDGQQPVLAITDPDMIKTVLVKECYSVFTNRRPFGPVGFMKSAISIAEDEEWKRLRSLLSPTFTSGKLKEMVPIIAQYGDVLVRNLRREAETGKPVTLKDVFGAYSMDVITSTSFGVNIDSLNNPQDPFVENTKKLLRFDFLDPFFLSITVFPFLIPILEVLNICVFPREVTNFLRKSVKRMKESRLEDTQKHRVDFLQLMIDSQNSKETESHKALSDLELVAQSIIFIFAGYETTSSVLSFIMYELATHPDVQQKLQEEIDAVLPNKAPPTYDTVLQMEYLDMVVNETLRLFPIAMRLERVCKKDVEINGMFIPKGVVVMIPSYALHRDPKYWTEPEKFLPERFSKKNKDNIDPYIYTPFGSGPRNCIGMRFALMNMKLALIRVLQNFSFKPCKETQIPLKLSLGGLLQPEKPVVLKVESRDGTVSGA

[4] = target: T2, Cytochrome P450 1A2 (Homo sapiens, UniProt P05177);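 further: PubChem cytochrome P450 panel assay, CYP1A2 panel member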
T2 sequence (P05177 whole entry): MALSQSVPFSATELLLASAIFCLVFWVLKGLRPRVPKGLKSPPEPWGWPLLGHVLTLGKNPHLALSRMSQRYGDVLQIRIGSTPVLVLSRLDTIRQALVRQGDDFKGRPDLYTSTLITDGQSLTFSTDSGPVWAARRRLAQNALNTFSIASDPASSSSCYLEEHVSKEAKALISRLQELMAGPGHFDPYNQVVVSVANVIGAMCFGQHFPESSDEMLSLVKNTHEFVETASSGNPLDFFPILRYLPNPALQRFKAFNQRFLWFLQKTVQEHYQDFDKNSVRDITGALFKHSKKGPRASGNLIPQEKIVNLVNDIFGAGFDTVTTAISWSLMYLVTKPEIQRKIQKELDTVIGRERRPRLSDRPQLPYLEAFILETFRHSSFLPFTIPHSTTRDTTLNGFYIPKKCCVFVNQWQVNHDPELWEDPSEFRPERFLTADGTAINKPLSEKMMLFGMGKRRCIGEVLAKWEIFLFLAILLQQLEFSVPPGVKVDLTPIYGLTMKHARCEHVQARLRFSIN

[5] = target: Cytochrome P450 2D6 (Homo sapiens, UniProt P10635);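 further: CYP2D6 member of a cytochrome P450 panel assay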
Chain of Cytochrome P450 2D6 (P10635 whole entry): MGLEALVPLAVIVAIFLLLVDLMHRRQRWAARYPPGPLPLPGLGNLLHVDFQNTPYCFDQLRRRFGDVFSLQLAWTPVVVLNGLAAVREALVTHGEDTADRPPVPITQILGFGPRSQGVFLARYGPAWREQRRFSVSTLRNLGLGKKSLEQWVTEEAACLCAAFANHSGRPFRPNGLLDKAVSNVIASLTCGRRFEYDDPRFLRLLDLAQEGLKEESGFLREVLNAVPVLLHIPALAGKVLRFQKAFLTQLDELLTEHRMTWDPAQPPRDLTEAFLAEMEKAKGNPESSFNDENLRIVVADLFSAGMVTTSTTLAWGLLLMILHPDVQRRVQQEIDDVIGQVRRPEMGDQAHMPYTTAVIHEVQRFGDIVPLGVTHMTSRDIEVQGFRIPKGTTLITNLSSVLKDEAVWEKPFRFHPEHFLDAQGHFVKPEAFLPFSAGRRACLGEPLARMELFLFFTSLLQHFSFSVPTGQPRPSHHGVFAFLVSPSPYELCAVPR

[6] = cells; assay type: functional, cell-based
[7] = cells; assay type: functional, cell-based; remark: listed apart in the source
[8] = Luminescence Cell-Based Dose Response HTS to Identify Inhibitors of 5'UTR Stem-Loop Driven Prion Protein mRNA Translation in H4 Neuroglioblastoma Cells. [Related pubchem assays: 1827 (Project Summary), 1813 (Primary HTS)]; assay type: functional
[9] = alpha-synuclein stem-loop luciferase translation blockers – H4 neuroglioma cells, luminescence, confirmation (AID 1988); assay type: functional, cell-based
[10] = luciferase reporter signal suppression in cells – H4 neuroglioma cells, luminescence, dose response (AID 1990); assay type: functional, cell-based
[11] = target: Cytochrome P450 2C19 (Homo sapiens, UniProt P33261); test: Cytochrome panel assay with activity outcomes. Panel member name: p450-cyp2c19 Compounds with AC50 equal or less than 10 uM are considered active; assay type: functional
Chain of Cytochrome P450 2C19 (P33261 whole entry): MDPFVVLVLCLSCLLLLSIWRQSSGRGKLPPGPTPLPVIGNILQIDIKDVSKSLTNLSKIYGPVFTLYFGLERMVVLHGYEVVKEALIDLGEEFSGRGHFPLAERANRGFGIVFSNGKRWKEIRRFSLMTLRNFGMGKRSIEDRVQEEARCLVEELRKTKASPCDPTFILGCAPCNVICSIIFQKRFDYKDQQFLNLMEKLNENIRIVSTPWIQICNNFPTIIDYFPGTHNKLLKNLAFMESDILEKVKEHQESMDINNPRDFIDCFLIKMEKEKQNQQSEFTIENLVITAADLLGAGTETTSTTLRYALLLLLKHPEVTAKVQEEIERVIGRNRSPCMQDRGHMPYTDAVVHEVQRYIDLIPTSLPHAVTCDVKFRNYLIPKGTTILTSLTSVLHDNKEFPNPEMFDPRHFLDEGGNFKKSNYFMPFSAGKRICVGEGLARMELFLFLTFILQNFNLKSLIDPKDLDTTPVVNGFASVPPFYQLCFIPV

[12] = Luminescence Cell-Based Dose Confirmation HTS to Identify Inhibitors of Platelet Dense Granule Release. [Related pubchem assays: 1663 (Primary HTS), 1678 (Summary of Project)]; assay type: functional
[13] = target: Luciferin 4-monooxygenase (Photinus pyralis, UniProt P08659); test: inhibition of purified Photinus pyralis luciferase – biochemical, luminescence, dose response (AID 1891)
Chain of Luciferin 4-monooxygenase (P08659 whole entry): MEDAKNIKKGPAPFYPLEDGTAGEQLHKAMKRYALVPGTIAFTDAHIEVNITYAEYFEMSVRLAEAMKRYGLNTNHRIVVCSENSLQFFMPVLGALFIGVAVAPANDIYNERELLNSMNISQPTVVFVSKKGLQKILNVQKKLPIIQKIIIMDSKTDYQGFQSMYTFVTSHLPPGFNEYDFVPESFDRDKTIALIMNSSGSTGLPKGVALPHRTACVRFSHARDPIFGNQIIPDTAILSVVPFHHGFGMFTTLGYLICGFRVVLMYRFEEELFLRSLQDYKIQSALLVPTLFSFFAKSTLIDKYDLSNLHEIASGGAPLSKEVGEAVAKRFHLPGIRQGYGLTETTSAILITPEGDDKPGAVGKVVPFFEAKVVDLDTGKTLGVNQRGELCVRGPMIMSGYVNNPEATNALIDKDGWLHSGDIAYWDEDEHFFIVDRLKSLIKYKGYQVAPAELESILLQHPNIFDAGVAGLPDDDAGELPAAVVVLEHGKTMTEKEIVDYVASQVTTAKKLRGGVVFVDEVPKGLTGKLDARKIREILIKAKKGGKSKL

[14] = Luminescence Cell-Based Dose Retest to Confirm Inhibitors of Cancer Stem Cells. [Related pubchem assays (depositor defined):AID2717, AID2721]; assay type: functional; details: Homo sapiens
[15] = test system: INS1; test: INS-1E survival protection against cytokine death – cell-based, luminescence, retest, dose response (AID 449756); assay type: functional; details: Rattus norvegicus, INS1;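 further: cell death triggered by IL-1 beta plus TNF-alpha plus IFN-gamma mixture; protective hits raise ATP signal compared with cytokine alone wells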
[16] = target: T1, Heat shock factor protein 1; test: enhancement of HSF1-driven luciferase signal – cell-based, NIH3T3, luminescence, dose retest, confirmation (AID 435004); assay type: functional;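 further: stress induced by proteasome inhibitor MG132 added 30 min after compound; luciferase reporter driven by HSF1 response element in NIH3T3 cells; actives raise luminescence as potentiators of the MG132 stress response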

Cc1ccc([N+](=O)[O-])cc1NC(=O)CSc1n[nH]c(-c2cccnc2)n1
EC50 [1]: > 195 µM (not active)

Cc1cccc(C)c1NC(=O)C[S+]([O-])CC(=O)NCCCc1ccccc1 (stereo not given)
AC50 [2]: 22.4 µM (inconclusive)
AC50 [3]: 14.1 µM (inconclusive)

COc1ccc(Oc2ncc3nc(-c4ccc(F)cc4)c(=O)n(Cc4cccs4)c3n2)cc1
AC50 [4]: 5.01 µM (inconclusive)
AC50 [2]: 3.16 µM (inconclusive)

COc1ncc2nc(CCc3ccccc3)c(=O)n(Cc3cccs3)c2n1
AC50 [5]: 12.6 µM (inconclusive)

Cc1ccc(-c2cc(C(=O)Nc3cccnc3)[nH]n2)c(O)c1C
EC50 [6]: > 350 µM (not active)
EC50 [7]: 7.01 µM (active)

COc1ccc(CN2CCN(S(=O)(=O)c3ccccc3)CC2)cc1Br
EC50 [8]: > 120 µM (not active)
EC50 [9]: > 120 µM (not active)
EC50 [1]: > 195 µM (not active)
EC50 [10]: > 120 µM (not active)

Cc1ccc(N2C(=O)/C(=C/N3CCN(C(=O)c4ccco4)CC3)C(=O)NC2=S)cc1C
AC50 [2]: 20 µM (inconclusive)
AC50 [3]: 25.1 µM (inconclusive)
AC50 ([11]; read-out: AC50): 39.8 µM (inconclusive)

Cc1noc(C)c1-c1nc(NCCN2CCOCC2)c2ccccc2n1
AC50 [5]: 25.1 µM (inconclusive)

CC(C)CCNC(=O)Cn1cc2c(n1)CCCCC2
EC50 [1]: > 195 µM (not active)

CN(Cc1ccco1)c1ccnc(-c2cccc(C#N)c2)n1
AC50 [5]: 20 µM (inconclusive)

Cc1cccc(Oc2nc3ccccn3c(=O)c2/C=C(\C#N)C(=O)NC2CCS(=O)(=O)C2)c1C (stereo not given)
EC50 [12]: 4.44 µM (active)
EC50 [13]: > 112 µM (not active)

O=C(c1ccco1)N1CCC[C@@]2(CCN(Cc3nccs3)C2)C1
AC50 [5]: 10 µM (inconclusive)
AC50 [3]: 7.94 µM (inconclusive)
AC50 ([11]; read-out: AC50): 39.8 µM (inconclusive)

COCCn1c(=O)c(-c2cccc(C#N)c2)nc2cnc(N3CCN(C)CC3)nc21
AC50 [4]: 15.8 µM (inconclusive)
AC50 [2]: 3.98 µM (inconclusive)

CCC(Cc1ccccc1)NS(=O)(=O)c1c(C)nc2sccn2c1=O (stereo not given)
EC50 [12]: > 112 µM (not active)
EC50 [13]: > 112 µM (not active)

Cc1noc(COc2ccc(OCc3nc(C)no3)cc2)n1
AC50 [2]: 39.8 µM (inconclusive)
AC50 ([11]; read-out: AC50): 17.8 µM (inconclusive)

C=CCn1c2ccccc2c2nnc(SCC(=O)O)nc21
EC50 [1]: > 195 µM (not active)

CCOC(=O)C1CCN(Cc2cnc(Oc3ccc(OC)cc3)s2)CC1
AC50 [5]: 22.4 µM (inconclusive)

OCC[C@@H]1C[C@@H](O)[C@H](O)[C@@]2(Cc3ccccc3CO2)O1
EC50 [1]: > 195 µM (not active)

C=CCCC(=O)Nc1nc(C)c(-c2csc(Nc3cc(OC)ccc3OC)n2)s1
AC50 [14]: 0.71 µM (active)
EC50 [8]: 12.1 µM (active)
EC50 [9]: 5.52 µM (active)
EC50 [10]: > 120 µM (not active)

O/C(=C(\C([S-])=Nc1cccc2ccccc12)[n+]1ccccc1)c1cccs1
EC50 [6]: > 350 µM (not active)
EC50 [7]: > 350 µM (not active)

CC1=NN(C(N)=S)C(C)(C)C1
EC50 [1]: > 195 µM (not active)

COC(=O)Cc1ccc(NC(S)=NC(C)(C)C)cc1
EC50 [6]: > 350 µM (not active)
EC50 [7]: > 350 µM (not active)

Cc1ccc(CNC(=O)c2cnc3ccccc3n2)cc1
EC50 [12]: > 112 µM (not active)
EC50 [13]: > 112 µM (not active)

COc1c(O)ccc2c1CN1CCc3cc4c(cc3[C@@H]1C2)OCO4
AC50 [4]: 0.501 µM (inconclusive)
AC50 [3]: 5.01 µM (inconclusive)
AC50 ([11]; read-out: AC50): 3.98 µM (inconclusive)

CC(=O)c1ccc(NC(=O)Nc2ccc([N+](=O)[O-])cc2C)cc1
EC50 [12]: > 112 µM (not active)
EC50 [13]: > 112 µM (not active)

Cc1ccc(S(=O)(=O)Nc2cccnc2)c(C)c1C
EC50 [1]: > 195 µM (not active)

Cc1ccc(C(OC(=O)c2ccco2)C(=O)NC2CCCCC2)cc1 (stereo not given)
AC50 [2]: 39.8 µM (inconclusive)

COc1cccc(N2C(=O)N(c3ccccc3)C3CS(=O)(=O)CC32)c1 (stereo not given)
EC50 [1]: > 195 µM (not active)

CC(NC(=O)C1CCC(C(=O)NC(C)c2ccccc2)CC1)c1ccccc1 (stereo not given)
AC50 [14]: > 195 µM (inactive)
AC50 [15]: > 260 µM (inactive)

COC(=O)[C@@]1(Cc2ccc(F)cc2)[C@H]2c3cc(C(=O)N4CCCC4)n(Cc4ccc(C)o4)c3C[C@H]2CN1C(=O)c1ccccc1
AC50 [4]: 10 µM (inconclusive)
AC50 [5]: 39.8 µM (inconclusive)

COc1ccc(/C=C2\CCc3c2nc2ccccc2c3C(=O)O)cc1OC
EC50 [12]: 73.5 µM (active)
EC50 [13]: 6.42 µM (active)

Cc1cc(C(=O)NCc2ccccc2)no1
AC50 [4]: 0.398 µM (inconclusive)
AC50 [5]: 20 µM (inconclusive)
AC50 ([11]; read-out: AC50): 28.2 µM (inconclusive)

COc1ccc(-n2c(-c3cccc(OC)c3)nc(=S)c3c2CCCC3)cc1
EC50 [1]: > 195 µM (not active)

Cc1cc2nc(-c3ccc(NC(=O)c4cccnc4)cc3)oc2cc1C
EC50 [12]: > 112 µM (not active)
AC50 [15]: 3.87 µM (active)
EC50 [13]: > 112 µM (not active)

COc1ccc(CNc2nc(-c3cccc(NS(C)(=O)=O)c3)nc3ccccc23)c(OC)c1
AC50 [5]: 12.6 µM (inconclusive)

O=C(CSc1nnnn1C1CCCC1)Nc1ccc(F)cc1
AC50 [4]: 25.1 µM (inconclusive)
AC50 [2]: 31.6 µM (inconclusive)

CCOC(=O)N1CCC(Nc2ncnc3c2cnn3-c2ccc(Cl)cc2)CC1
EC50 [1]: 89.4 µM (active)

Fc1ccc(Nc2ccnc(-c3ccccc3C(F)(F)F)n2)cc1
AC50 [5]: 39.8 µM (inconclusive)

Cc1onc(-c2c(F)cccc2Cl)c1C(=O)NCC1COc2ccccc2O1 (stereo not given)
EC50 [12]: > 112 µM (not active)
EC50 [13]: > 112 µM (not active)

CC[C@@H]1CC(=O)N(SC[C@H](N)C(=O)O)C1=O
AC50 [11]: inconclusive

CN1CCN(C2CC(=O)N(Cc3ccc(N4CCCC4=O)cc3)C2=O)CC1 (stereo not given)
AC50 [11]: inconclusive

CN1CCN(c2nc(-c3cccc(C#N)c3)nc3ccccc23)CC1
AC50 [5]: 12.6 µM (inconclusive)

CCCCN(CC)C(=O)Cc1ccccc1OC
AC50 [5]: 28.2 µM (inconclusive)

CCS(=O)(=O)c1ccc2c(c1)N(S(C)(=O)=O)CC(C(=O)NCCOC)O2 (stereo not given)
AC50 [2]: 35.5 µM (inconclusive)

Cc1cc(NC(=O)COc2ccc(Cl)cc2Cl)n(-c2ccccc2)n1
AC50 [5]: 7.08 µM (inconclusive)

c1cc(CNCCCN2CCOCC2)ccn1
AC50 [5]: 15.8 µM (inconclusive)
AC50 [3]: 31.6 µM (inconclusive)

CC1CCC(C(=O)NC(C(=O)N2CCC(N3CCCCC3)CC2)C(C)C)CC1 (stereo not given)
AC50 [3]: 14.1 µM (inconclusive)
AC50 ([11]; read-out: AC50): 8.91 µM (inconclusive)

CC(C)(C)c1ccc(COC(=O)CNC(=O)CNC(=O)Cc2ccccc2)cc1
AC50 ([11]; read-out: AC50): 31.6 µM (inconclusive)

CN(C)c1ccc(/C=C2/C(=O)Nc3ccccc32)cc1
AC50 [2]: 39.8 µM (inconclusive)

O=C(N/N=C/c1ccc2c(c1)OCO2)/C(=C/c1ccc2c(c1)OCO2)NC(=O)c1ccccc1
AC50 [2]: 12.6 µM (inconclusive)

C/C(=N\Nc1nc(-c2ccccc2)cs1)c1cccs1
EC50 [1]: > 195 µM (not active)

CCc1ccccc1N(CC(=O)N/N=C/c1ccc(OC(=O)OC)c(OC)c1)S(C)(=O)=O
EC50 [12]: 43.7 µM (active)
EC50 [13]: > 112 µM (not active)

Cc1c(O)ccc(/C=N/Nc2ncccc2[N+](=O)[O-])c1O
EC50 [12]: 1.12 µM (active)
EC50 [13]: 0.176 µM (active)
EC50 [16]: > 260 µM (inconclusive)
